Measurements from patent US11739161B2, “Methods for treating and diagnosing prostate cancer” (Tufts Medical Center, Inc., priority 2017, dated 2023).

Legend:
Assay type in all cases: cell-based, human
DU145 cells = experiment: RNASE4-induced cell proliferation (MTT assay)
Protocol: (§1) FIGS. 10A-E. RNASE4 induces prostate cancer cell proliferation and phosphorylation of AKT and S6. (A and B) Exogenous RNASE4 (1 μg/ml) stimulates cell proliferation (A) and cell cycle progression (B) of DU145 cells cultured in the presence of 2% FBS. Cell numbers were determined by MTT assay. Cell cycle status was determined by flow cytometry after 24 hour incubation with RNASE4. (C) Time course of AKT and S6 phosphorylation of serum-starved DU145 cells by RNASE4 (1 μg/ml). Left panels, immunoblots; right panels, quantification of p-AKT and p-S6 normalized to total AKT and S6 by Image J analysis. […] Cells were pre-incubated with the inhibitors at the indicated concentrations for 1 hour prior to be stimulated by 1 μg/ml of RNASE4 for 5 minutes. Top panels, immunoblots; bottom panels, Image J quantification of p-AKT and p-S6 normalized to total AKT and S6. (E) Effect of AKT inhibitor MK-2206, PI3K inhibitors Wortmannin and LY294002, and mTOR inhibitor Rapamycin on RNASE4-induced cell proliferation. DU145 cells were serum-starved overnight, incubated with the inhibitors for 1 hour, and then treated with RNASE4 (1 μg/ml) for three days. Cell numbers were determined by MTT assay. Data shown are from a representative experiments in triplicates of 3 independent repeats. Error bars indicate SEM. **P≤0.01, by unpaired two-tailed Student's t test.
FIGS. 12A-F. RNASE4 induces AXL phosphorylation. (A) Human phospho-receptor tyrosine kinase (RTK) antibody array analysis. Serum-starved DU145 cells were treated with or without 1 μg/ml of RNASE4 for 5 minutes. […] Cell lysates were analyzed by antibodies against total AXL and phospho-AXL, with β-actin as the loading control. Left panels, immunoblots; right panel, Image J quantification of p-AXL normalized to total AXL. […] Left panels, immunoblots; right panel, quantification. […] Cell numbers were determined by MTT assay. […] Cell lysates were analyzed for AKT and P6 phosphorylation by immunoblotting. Top panels, immunoblots; bottom panels, quantification of phospho-AKT and phospho-S6 by Image J analyses normalized to total AKT and P6, respectively. […]

PC-3 cells = experiment: RNASE4-induced cell proliferation (MTT assay)
Protocol: FIGS. 11A-F. RNASE4 induces PC-3 cell proliferation and phosphorylation of AKT and S6. (A) Exogenous RNASE4 (1 μg/ml) stimulates PC-3 cells proliferation in the presence of 2% FBS. Cell numbers were determined by MTT assay. (B) Time course of AKT and S6 phosphorylation of serum-starved PC-3 cells by RNASE4 (1 μg/ml). Left panels, immunoblots; right panels, quantification of p-AKT and p-S6 normalized to total AKT and S6 by Image J. (C) Effect of AKT inhibitor MK-2206, PI3K inhibitors LY294002 and Wortmannin, and mTOR inhibitor Rapamycin on RNASE4-induced PC-3 cell proliferation. Cells were pre-incubated with the inhibitors at the indicated concentrations for 1 hour prior to be stimulated by RNASE4 (1 μg/ml) for 3 days. Cell numbers were determined by MTT assay. (D) Human phospho-RTK antibody array analysis of starved PC-3 cells treated with or without 1 μg/ml RNASE4 for 5 minutes. (E) Time course of AXL phosphorylation stimulated by RNASE4 in PC-3 cells. Serum-starved PC-3 cells were treated with 1 μg/ml RNASE4 for different time. Cell lysates were analyzed for total AXL and phopho-AXL by immunoblotting. Left panels, immunoblots; right panel, quantification phospho-AXL normalized to total AXL by Image J analysis. (F) Effect of AXL inhibitor R428 on RNASE4-induced PC-3 cell proliferation. Serum-starved PC-3 cells were incubated with 1 or 3 μM R428 for 3 hours and then stimulated by 1 μg/ml of RNASE4 for 3 days. Cell numbers were determined by MTT assay. Data shown are means±SEM of a representative experiments in triplicates of 3 independent repeats. **P≤0.01 and ***P≤0.001, by unpaired two-tailed Student's t test.

[1] = test system: AKT and S6 phosphorylation in DU145 cells; experiment: RNASE4-induced phosphorylation of AKT and S6 (immunoblot); settings: then 1 μg/ml RNASE4 5 minutes
Protocol: as §1
(§2) FIGS. 12A-F. RNASE4 induces AXL phosphorylation. (A) Human phospho-receptor tyrosine kinase (RTK) antibody array analysis. Serum-starved DU145 cells were treated with or without 1 μg/ml of RNASE4 for 5 minutes. A total of 1.5 mg cell lysate protein was blotted on each array membrane. […] (B) Immunoblot analysis of RNASE4-stimulated AXL phosphorylation. DU145 cells were serum-starved overnight and treated with 1 μg/ml of RNASE4 for the indicated time. Cell lysates were analyzed by antibodies against total AXL and phospho-AXL, with β-actin as the loading control. Left panels, immunoblots; right panel, Image J quantification of p-AXL normalized to total AXL. (C) Immunoblot analysis of phospho-AXL in response to stimulation by ANG, RNase A, and RNASE4. DU145 cells were serum-starved overnight and treated with 1 μg/ml of ANG, RNase A, or RNASE4 for 15 minutes. Left panels, immunoblots; right panel, quantification. (D) Effect of AXL inhibitor R428 on RNASE4-induced cell proliferation. Serum-starved DU145 cells were incubated with 1 or 3 μM R428 for 3 hours and then stimulated by 1 μg/ml of RNASE4 for 3 days. Cell numbers were determined by MTT assay. Data shown are means±SEM of a representative experiment (in triplicates) of 3 independent repeats. **P≤0.01 and ***P≤0.001, by unpaired two-tailed Student's t test. (E) Effect of AXL inhibitor R428 on RNASE4-induced AKT and P6 phosphorylation. Serum-starved DU145 cells were incubated with 1 or 3 μM R428 for 3 hours and then stimulated by 1 μg/ml of RNASE4 for 5 minutes. Cell lysates were analyzed for AKT and P6 phosphorylation by immunoblotting. Top panels, immunoblots; bottom panels, quantification of phospho-AKT and phospho-S6 by Image J analyses normalized to total AKT and P6, respectively. (F) Schematic presentation of proposed involvement of AXL in RNASE4-stimulated cellular events.

[2] = test system: AXL phosphorylation in DU145 cells; experiment: AXL phosphorylation (phospho-RTK array, immunoblot); settings: serum-starved DU145, 1 μg/ml protein
Protocol: as §2
Human Phospho-RTK Arrays were purchased from R&D Systems. […] Protein concentrations were quantified by Bradford Assay and 1.5 mg cell lysate was used per array. Pixel densities on were analyzed by ImageJ. […]

[3] = serum-starved DU145, 1 or 3 μM R428 3 hours

## NC1(c2ccc(-c3nc4ccn5c(=O)[nH]nc5c4cc3-c3ccccc3)cc2)CCC1 [MK-2206]
DU145 cells; serum-starved DU145, inhibitor 1 hour, then RNASE4 1 μg/ml three days
  RNASE4-induced cell proliferation: abolished
PC-3 cells; PC-3, inhibitor 1 hour, then RNASE4 1 μg/ml 3 days
  RNASE4-induced cell proliferation: abolished
[1]; DU145, inhibitor 1 hour
  RNASE4-induced AKT phosphorylation: inhibited
  RNASE4-induced S6 phosphorylation: inhibited

## Nc1nc(Nc2ccc3c(c2)CCC(N2CCCC2)CC3)nn1-c1cc2c(nn1)-c1ccccc1CCC2 (stereo not shown) [R428]
DU145 cells; serum-starved DU145, 1 or 3 μM R428 3 hours, then 1 μg/ml RNASE4 3 days
  RNASE4-induced cell proliferation: inhibted
PC-3 cells; serum-starved PC-3, 1 or 3 μM R428 3 hours, then 1 μg/ml RNASE4 3 days
  RNASE4-induced cell proliferation: inhibted
[1]; [3]
  RNASE4-induced AKT phosphorylation: inhibted
  RNASE4-induced S6 phosphorylation: inhibted

## ANG: Angiogenin, another member of the pancreatic ribonuclease superfamily [reference compound]
[2]
  phosphorylation of AXL: do not induce

B1: RNase A: member of the pancreatic ribonuclease superfamily (protein, UniProt P61823 27-150, looked up)
Ribonuclease pancreatic: KETAAAKFERQHMDSSTSAASSSNYCNQMMKSRNLTKDRCKPVNTFVHESLADVQAVCSQKNVACKNGQTNCYQSYSTMSITDCRETGSSKYPNCAYKTTQANKHIIVACEGNPYVPVHFDASV
[2]
  phosphorylation of AXL: do not induce
